Each structure is given as a SMILES string. Where only a bound is given, the exact number is not on record here.

For assay [1], the system named is CCRF-CEM cells. The assay can be described thus: Resazurin viability assay, CCRF-CEM cells (combination, Bliss Independence CI). In kind it is cell-based, human. To be noted: 0.5 μm of BKM120 as used in combination, FIG. 1, CCRF-CEM. How it is done:
The CCRF-CEM (ATCC CCL-119) cell line is derived from T lymphoblasts from peripheral blood of a child with acute leukaemia. The cells were grown according to the recommendations of the supplier. The culture medium, RPMI-1640, was supplemented with 10 μL/mL glutamine, 2 μL/mL gentamicin and 10% foetal bovine serum (FBS) to make complete growth medium (CGM). The cells were incubated at 37 °C in a humidified atmosphere with 5% CO2. Passaging was conducted every 2 - 4 days to maintain a cell density below 2.5×10^6 cells/mL, and thus ensure a continuous proliferation. Cells were allowed to acclimatise for two weeks after establishment before they were utilised for experimental purposes and discarded after three months. […] Resazurin was metabolized for 1-2 h (37° C., 5% CO2) before fluorescence was read at 544 nm excitation and 590 nm emission wavelength (BioTek Synergy HT). […] Statistical significance between treatments were determined using Welch's ANOVA with Tamhane's T2 correction for multiple comparisons, p<0.05 was considered statistically significant. […] The combination index was calculated using: [formula] • where CI is the combination index, EA represent the effect of drug A given as a monotherapy, EB represent the effect of drug B given as a monotherapy and EAB represent drugs A and B given in combination at the same concentrations as the monotherapies. […]

For assay [2], the system named is MDA-MB-436 cells. Description: Resazurin viability assay, MDA-MB-436 cells (monotherapy and combination). It is filed as cell-based, human. To be noted: for IC50: MDA-MB-436, 72 h treatment, n = 3. The text has this:
The MDA-MB-436 cell line was from ATCC. The MDA-MB-436 cell line was established from a pleural effusion of a patient with metastatic breast adenocarcinoma. The cell line is of triple negative breast cancer, however the MDA-MB-436 cell line is classified as mesenchymal stem-like with high enrichment of genes for biological processes such as cell motility (Rho pathway), cellular differentiation and growth pathways (ALK pathway, TGF-β signalling and Wnt/β-catenin pathway). MDA-MB-436 cells were maintained in RPMI-1640 culturing media supplemented with 10% FBS, 0.3 mg/mL L-glutamine and 0.1 mg/mL gentamicin, 10 mcg/mL insulin and incubated in 37° C. humidified atmosphere. Sub-culture using trypsin-EDTA 0.5% every 3-4 days with cell density of 2-3 million cells in a T75 cm2 culturing flask to ensure actively proliferating cells. The MDA-MB-436 cells was seeded in 1×10^4 cells/well. After 24 h of cultivation, when the cells were ˜30-50% confluent, the medium was replaced with serum free growth medium without gentamycin to ensure synchronization of the cells and to increase cell sensitivity to treatment. The MDA-MB-436 cells were starved in starvation media with insulin. The medium was replaced with fresh serum free medium with or without compound 2, NVP-BKM120 (Cayman Chemicals, US). The cells were observed under the microscope to evaluate possible morphology changes and signs of stress before the addition of resazurin according to the manufacturer's instructions (RnD Systems, UK). MDA-MB-436 cells were incubated for 72 h. Resazurin was metabolized for 1-2 h (37° C., 5% CO2) before fluorescence was read at 544 nm excitation and 590 nm emission wavelength (BioTek Synergy HT). The experiments were performed in series of eight wells per treatment and repeated 2-3 times. […] Statistical significance between treatments were determined using Welch's ANOVA with Tamhane's T2 correction for multiple comparisons, p<0.05 was considered statistically significant.

As for `Nc1cc(C(F)(F)F)c(-c2cc(N3CCOCC3)nc(N3CCOCC3)n2)cn1` [BKM120, buparlisib, reference compound], the expected inhibition in assay [1] came to 10%. Also, the viability at 0.4 µM in assay [2] (Homo sapiens, 72 h, BKM120 0.4 μM alone, MDA-MB-436, relative to untreated control set to 100%) was found to be 84 ± 7%. The viability at 1.1 µM in assay [2] (Homo sapiens, 72 h, BKM120 1.1 μM alone, MDA-MB-436, relative to untreated control set to 100%) worked out at 45 ± 10%. For the same compound, in assay [2] (Homo sapiens), the IC50 is 1.2 µM.
As to `CCCCCCCOc1ccc(OCC(=O)c2nc(C(=O)OC)cs2)cc1` [Compound 2], the viability at 5 µM in assay [2] (Homo sapiens, 72 h, Cmpd 2 5 μM alone, MDA-MB-436, relative to untreated control set to 100%) amounted to 92 ± 3%. Further, the viability at 6.5 µM in assay [2] (Homo sapiens, 72 h, Cmpd 2 6.5 μM alone, MDA-MB-436, relative to untreated control set to 100%) is 82 ± 6%. In addition, the viability at 7.5 µM in assay [2] (Homo sapiens, 72 h, Cmpd 2 7.5 μM alone, MDA-MB-436, relative to untreated control set to 100%) is 76 ± 4%. For the same compound, the viability at 10 µM in assay [2] (Homo sapiens, 72 h, Cmpd 2 10 μM alone, MDA-MB-436, relative to untreated control set to 100%) came to 60 ± 10%. Further, in assay [2] (Homo sapiens), the IC50 came out at 10.4 µM. In addition, the “concentration at which viability was reduced significantly compared to the untreated control” value in assay [2] (MDA-MB-436, 72 h, control set to 100% viability) was not below 9 µM.

These data come from patent publication US20220304985A1, “COMBINATION THERAPY FOR PROLIFERATIVE CONDITIONS” (Avexxin AS, priority 2019, published 2022).
